The nature of data set [1]: liver human microsomes stability study. Particulars: for half-life at 0.1 μM: human, liver microsomes. The format is in vitro ADME. How it is done:
(§1) Compounds were evaluated for liver microsome metabolic stability at Eurofins/Cerep (St. Charles, MO). […] Test compounds at a concentration of 0.1 μM were incubated for up to 60 minutes in duplicate. The microsomal protein concentration was 0.1 mg/mL. The parent compound was detected by HPLC-MS/MS analysis. The percent compound remaining was calculated by comparing the peak area of the parent compound at each time point to time zero. Half-life was estimated from the slope of the initial linear range of the logarithmic curve of parent compound remaining vs. time, assuming first order kinetics. The apparent intrinsic clearance was further calculated from the half-life value for assays with microsomes.

Data set [2] in a line: rat liver microsomes stability study. The format is in vitro ADME. As to conditions: for half-life at 0.1 μM: rat, liver microsomes. The procedure:
as §1
(In general: Liver microsomes are vesicles of endoplasmic reticulum, rich in cytochrome P450 enzymes.)

The conditions of data set [3]: cited from earlier work.
Data set [4] can be described thus: pharmacokinetics in male Sprague-Dawley rats after oral gavage. The format is in vivo. As to conditions: PO 50 mg/kg; for Cmax / AUC(0-t): rat, male Sprague-Dawley rats, plasma, average N=3, 70/30 Saline/PEG400; for AUC(0-t): read-out: AUC0-12. How it is done: Compounds were evaluated for pharmacokinetic profiles in male Sprague-Dawley rats at Shanghai Chempartner, Shanghai, China. Etifoxine hydrochloride and the hydrochloride salt of the compound described in example 1 were dosed to Sprague-Dawley rats via oral gavage (PO). Each compound was administered at a dose of 50 mg/kg to three rats (N=3 rats/compound; total 6 rats in the study). Each compound was formulated in 70/30 Saline/PEG400 at a concentration of 5 mg/mL (10 mL/kg injection volume/rat). Blood samples were collected from each rat at 10, 20, 30, 45 minutes and 1, 2,4 and 12 hours post-dose. Blood samples were put on ice and centrifugated to obtain plasma. Plasma samples were analyzed for concentrations of the dosed compound at each time point by LC-MS/MS using an AB-Sciex API-400 mass spectrometer. The lower limit of quantitation of each compound was 1 ng/mL. Pharmacokinetic parameters were determined by non-compartmental analysis using WinNonlin 6.2 software.

Where [5] appears, read: human liver microsomes, 0.1 μM compound, 0.1 mg/mL microsomal protein, up to 60 minutes, read-out: Half-life (minutes) Experiment 1.
[6] abbreviates: 0.1 μM compound, 0.1 mg/mL microsomal protein, up to 60 minutes, read-out: Half-life (minutes) Experiment 2.
The mark [7] stands for this setting: rats, relative to etifoxine hydrochloride.
[8] abbreviates: same conditions, different lot of human liver microsomes, read-out: average half-life.

Structures can show the parent of a compound that is named as a salt.

The text below walks through data of patent publication US12433896B2, “Deuterated analogs of etifoxine, their derivatives and uses thereof” (GABA Therapeutics Inc., priority 2015, dated 2025).

Usually half-life stands for the time needed for the level to fall by half in the phase considered. As a reminder, the Cmax is the maximum level reached in the sampled fluid or tissue.

Consider `CCNC1=Nc2ccc(Cl)cc2C(C)(c2ccccc2)O1` (stereo not drawn) [Etifoxine, 6-chloro-2-(ethylamino)-4-methyl-4-phenyl-4H-3,1-benzoxazine], for which the “Half-life (minutes) Experiment 2” value in data set [1] (human liver microsomes, 0.1 μM compound, 0.1 mg/mL microsomal protein, up to 60 minutes) was found to be 21.9 min. The half-life at 0.1 μM was 23 min in data set [1] (setting [5]) and 7.4 min in data set [2] (setting [6]). In addition, the “Half-life (minutes) Experiment 1” value in data set [2] (0.1 μM compound, 0.1 mg/mL microsomal protein, up to 60 minutes) was determined as 7.7 min. Moreover, in data set [3], the half-life in humans was 240 to 360 min.

Turning to `CCNC1=Nc2ccc(Cl)cc2C(C)(c2ccccc2)O1` (stereo not drawn) [Etifoxine hydrochloride, 6-chloro-2-(ethylamino)-4-methyl-4-phenyl-4H-3,1-benzoxazine, reference compound], in data set [4], the Cmax was found to be 1140 ng/mL and the AUC(0-t) worked out at 3380 ng·h/mL.

As to `[2H]C([2H])([2H])C([2H])([2H])NC1=Nc2ccc(Cl)cc2C(C)(c2ccccc2)O1` (stereo not drawn) [Example 1 hydrochloride, 6-chloro-N-(ethyl-d5)-4-methyl-4-phenyl-4H-3,1-benzoxazin-2-amine], in data set [4] (setting [7]), the “AUC0-12 greater than etifoxine hydrochloride” value came to 2.5 times and the “Cmax greater than etifoxine hydrochloride” value was found to be 1.7 times. Moreover, in data set [4], the concentration peaked (Cmax) at 1930 ng/mL and the AUC(0-t) is 8340 ng·h/mL.

With `[2H]c1c([2H])c([2H])c(C2(C)OC(NCC)=Nc3ccc(Cl)cc32)c([2H])c1[2H]` (stereo not drawn) [Example 6, 6-chloro-N-ethyl-4-methyl-4-(phenyl-d5)-4H-3,1-benzoxazin-2-amine], in data set [1] (setting [8]), the half-life at 0.1 μM came to 18 min.

For the molecule `[2H]C([2H])([2H])C1(c2ccccc2)OC(NCC)=Nc2ccc(Cl)cc21` (stereo not drawn) [Example 7, 6-chloro-N-ethyl-4-(methyl-d3)-4-phenyl-4H-3,1-benzoxazin-2-amine], in data set [1] (setting [8]), the half-life at 0.1 μM was 18 min.

On to `[2H]C([2H])([2H])C([2H])([2H])NC1=Nc2ccc(Cl)cc2C(C)(c2ccccc2)O1` (stereo not drawn) [Example 1, 6-chloro-N-(ethyl-d5)-4-methyl-4-phenyl-4H-3,1-benzoxazin-2-amine], for which the “half-life longer than that of etifoxine” value in data set [1] (human liver microsomes, relative to etifoxine) is given as “about 86%”; in data set [2] (relative to etifoxine), “about 75%”. The half-life at 0.1 μM in data set [1] (setting [5]) came to 39.7 min; in data set [1] (human liver microsomes, 0.1 μM compound, 0.1 mg/mL microsomal protein, up to 60 minutes, read-out: Half-life (minutes) Experiment 2), 41.8 min; in data set [1] (human liver microsomes, average of experiments 1 and 2, read-out: Half-life (minutes) Average), 41 min; in data set [2] (0.1 μM compound, 0.1 mg/mL microsomal protein, up to 60 minutes, read-out: Half-life (minutes) Experiment 1), 13.8 min; in data set [2] (setting [6]) it was 13.8 min; in data set [2] (average of experiments 1 and 2, read-out: Half-life (minutes) Average), 14 min.
